Test systems include SK-MEL-28 melanoma; OVCAR-8 ovarian; MDA-MB-231 breast; UO-31 renal; OVCAR-3 ovarian; HT29 colon; COLO 205 colon; A549 NSCLC; SK-MEL-5 melanoma; CAKI-1 renal.
Assay in all cases: NCI-60 cell line screen, 48 h

Structures are written as SMILES.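 Following 48 hours of exposure in 96-well plates, responses at five concentrations were used to interpolate endpoints linearly. GI50 is the concentration that inhibits growth by half. Definition used: TGI = concentration required for complete inhibition of growth.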 Bounds are passed on as bounds.

Regarding `COc1ccc(NC(=O)/C=C(C)/C=C/C=C(C)\C=C\C2=C(C)CCCC2(C)C)cc1`, the GI50 in the test on SK-MEL-28 melanoma was above 100 µM; in the test on OVCAR-8 ovarian, above 100 µM; with MDA-MB-231 breast it was 5.21 µM; in the test with UO-31 renal, above 100 µM; in the test with OVCAR-3 ovarian, 70.4 µM; with HT29 colon, 41.2 µM. Further, the GI50 in the test with COLO 205 colon is 75.9 µM; in the test on A549 NSCLC, 87.9 µM; in the test with SK-MEL-5 melanoma, 40.9 µM. The TGI in the test with SK-MEL-28 melanoma was above 100 µM; in the test on OVCAR-8 ovarian, above 100 µM; in the test on MDA-MB-231 breast, 59 µM; in the test with UO-31 renal, above 100 µM; with OVCAR-3 ovarian it was above 100 µM; in the test with HT29 colon, above 100 µM. The TGI in the test with COLO 205 colon, with A549 NSCLC and in the test with SK-MEL-5 melanoma was above 100 µM in each case.

Take `COc1ccc2nc3cccc(C(=O)NCCN(C)C)c3nc2c1`: the TGI with SK-MEL-28 melanoma is 4.88 µM; in the test on UO-31 renal, above 100 µM; in the test with CAKI-1 renal, above 20.9 µM; in the test on OVCAR-3 ovarian, 5.89 µM; in the test with HT29 colon it was 6.63 µM; in the test on COLO 205 colon it was above 24.3 µM. Also, the TGI with A549 NSCLC is above 100 µM.

Take `CC1=C(C(=O)Nc2ccccc2)C(c2ccc(C(C)C)cc2)C(C(=O)Nc2ccccc2)=C(C)N1`: the TGI in the test with SK-MEL-28 melanoma is above 63.7 µM; in the test on OVCAR-8 ovarian, above 66.3 µM; in the test on UO-31 renal, 46.6 µM; in the test on CAKI-1 renal, above 100 µM; in the test with OVCAR-3 ovarian, 56.3 µM; with HT29 colon, 29.9 µM. The TGI in the test on COLO 205 colon is 28.6 µM; with A549 NSCLC it was above 100 µM; in the test with SK-MEL-5 melanoma, 27 µM.

For the molecule `CC(=O)O[C@H]1C=CC23OC(=O)[C@]1(C)[C@H]2[C@H](C(=O)O)C12CC(=O)[C@@](CO)(CC[C@H]13)C2`, the TGI in the test with SK-MEL-28 melanoma, in the test on OVCAR-8 ovarian, with UO-31 renal, in the test on CAKI-1 renal, with OVCAR-3 ovarian and in the test with HT29 colon was above 100 µM each time. The TGI in the test on COLO 205 colon, in the test on A549 NSCLC and in the test with SK-MEL-5 melanoma was above 100 µM each time.

Consider `C[n+]1c(N)n(C(=O)OCc2ccccc2)c(=O)c2c1ncn2C(=O)OCc1ccccc1`, for which the TGI with SK-MEL-28 melanoma is above 100 µM; in the test on OVCAR-8 ovarian, above 100 µM; with UO-31 renal, 62.9 µM; with CAKI-1 renal, above 100 µM; in the test on OVCAR-3 ovarian, above 100 µM; in the test with HT29 colon, above 100 µM. In addition, the TGI in the test with COLO 205 colon, in the test on A549 NSCLC and in the test with SK-MEL-5 melanoma was above 100 µM in each case.

For the molecule `COC(=O)Cc1nc2ccccc2o1`, the TGI in the test on SK-MEL-28 melanoma, in the test on OVCAR-8 ovarian, in the test on UO-31 renal, in the test on CAKI-1 renal, in the test with OVCAR-3 ovarian and in the test on HT29 colon was above 100 µM each time. The TGI in the test on COLO 205 colon, in the test on A549 NSCLC and in the test on SK-MEL-5 melanoma was above 100 µM in each case.

Consider `COc1ccc(C(=O)O/N=C2/CCC/C2=C\c2ccccc2)cc1`, for which the TGI in the test with SK-MEL-28 melanoma, with OVCAR-8 ovarian, in the test on UO-31 renal, with CAKI-1 renal, in the test with OVCAR-3 ovarian and with HT29 colon was above 100 µM in each case. The TGI in the test with COLO 205 colon, in the test with A549 NSCLC and with SK-MEL-5 melanoma was above 100 µM throughout.

For `COc1ccc(C2=NOP(c3ccccc3)(c3ccccc3)(c3ccccc3)C2)cc1`, the TGI is above 100 µM in the test on SK-MEL-28 melanoma; above 92.7 µM in the test with OVCAR-8 ovarian; above 100 µM with UO-31 renal; above 64 µM with CAKI-1 renal; above 85.5 µM in the test with OVCAR-3 ovarian; above 48.5 µM in the test on HT29 colon. Also, the results for the TGI in the test with COLO 205 colon, in the test on A549 NSCLC and with SK-MEL-5 melanoma were 23.5 µM, above 76.1 µM and 28.8 µM, respectively.

Regarding `Cn1cc(NC(=O)c2cc(NC(=O)CCCCCCC(=O)Nc3cc(C(=O)Nc4cc(C(=O)NCCC(=N)N)n(C)c4)n(C)c3)cn2C)cc1C(=O)NCCC(=N)N`, the TGI with SK-MEL-28 melanoma was 16.9 µM; with OVCAR-8 ovarian, 43.2 µM; with UO-31 renal it was above 100 µM; in the test on CAKI-1 renal it was 89.7 µM; with OVCAR-3 ovarian, 50.6 µM; in the test on HT29 colon, above 100 µM. Besides, the TGI in the test on COLO 205 colon came out at 18.9 µM; with A549 NSCLC, 54.4 µM; with SK-MEL-5 melanoma, 3.89 µM.

On to `Nc1c(-c2nc3ccccc3[nH]2)sc(=S)n1-c1ccc(Cl)cc1`, for which the TGI with SK-MEL-28 melanoma was above 100 µM; in the test with OVCAR-8 ovarian, 54.5 µM; in the test with UO-31 renal, 55.7 µM; in the test on CAKI-1 renal, 54.6 µM; in the test with OVCAR-3 ovarian it was 36.4 µM; in the test with HT29 colon it was 42.6 µM. Also, the figures for the TGI with COLO 205 colon, in the test on A549 NSCLC and with SK-MEL-5 melanoma were above 100 µM, 51.1 µM and 67.6 µM, respectively.

Consider `Nc1ccc(C(=O)N/C(=C\c2cccc([N+](=O)[O-])c2)c2nc3c4c(ccc3[nH]2)C(=O)c2ccccc2C4=O)cc1`, for which the TGI in the test with SK-MEL-28 melanoma is above 100 µM; in the test with OVCAR-8 ovarian, above 100 µM; in the test with UO-31 renal, 7.64 µM; in the test on CAKI-1 renal, above 100 µM; in the test with OVCAR-3 ovarian, above 100 µM; in the test on HT29 colon, above 100 µM. For the same molecule, the TGI in the test on COLO 205 colon, with A549 NSCLC and in the test on SK-MEL-5 melanoma was above 100 µM throughout.

For the molecule `CC(C)(C)OC(=O)N1N=NC2C3OC(CC3=O)C21` (stereo not given), the TGI in the test with SK-MEL-28 melanoma, in the test with OVCAR-8 ovarian, in the test on UO-31 renal, in the test with CAKI-1 renal, in the test with OVCAR-3 ovarian and in the test with HT29 colon was above 100 µM each time. The TGI with COLO 205 colon and in the test with A549 NSCLC was above 100 µM each time.

`O=C(/C(=C/c1ccccc1)c1ccccc1)N1c2ccccc2CC1c1c[nH]c2ccccc12` (stereo not given): the TGI was above 100 µM in the test with SK-MEL-28 melanoma; above 100 µM with OVCAR-8 ovarian; above 100 µM with UO-31 renal; above 100 µM with CAKI-1 renal; 89.6 µM in the test with OVCAR-3 ovarian; above 100 µM in the test with HT29 colon. Moreover, the figures for the TGI in the test with COLO 205 colon, in the test on A549 NSCLC and with SK-MEL-5 melanoma were 24.7 µM, above 100 µM and above 100 µM, respectively.

As to `COc1ccc2c(c1)OCCC1=C2SCC2(C)CCN=C12` (stereo not given), the TGI in the test on SK-MEL-28 melanoma, in the test on OVCAR-8 ovarian, in the test on OVCAR-3 ovarian, in the test with HT29 colon, in the test with COLO 205 colon and in the test on A549 NSCLC was above 100 µM throughout. Moreover, in the test with SK-MEL-5 melanoma, the TGI is above 100 µM.

(Values after PubChem BioAssay (NCI).)
